Source: ChEMBL document CHEMBL1130956 (Bioorg Med Chem Lett, 1998)

Key:
U-937 = assay: Ability to mobilize Ca+2 in LTD4 dependent Ca+2 mobilization assay in differentiated human monocytic U-937 cells; type: functional, cell-based
[1] = molecular target: T1, Cysteinyl leukotriene receptor 1 (Cavia porcellus, UniProt Q2NNR5); assay: Binding affinity against leukotriene D4 receptor in [3H]LTD4 binding assay
T1 sequence (Q2NNR5 whole entry): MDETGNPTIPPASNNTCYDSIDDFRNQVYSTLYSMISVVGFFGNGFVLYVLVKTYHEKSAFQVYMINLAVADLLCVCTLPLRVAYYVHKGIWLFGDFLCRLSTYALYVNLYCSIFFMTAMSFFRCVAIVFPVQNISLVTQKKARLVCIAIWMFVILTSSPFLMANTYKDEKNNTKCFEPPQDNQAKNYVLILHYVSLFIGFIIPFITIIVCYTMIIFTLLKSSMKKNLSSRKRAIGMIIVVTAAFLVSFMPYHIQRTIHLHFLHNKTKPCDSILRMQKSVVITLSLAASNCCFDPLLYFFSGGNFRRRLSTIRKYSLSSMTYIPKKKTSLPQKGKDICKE

Cavia porcellus [2] = assay: In vivo activity was determined after oral administration for 1 hr in a guinea pig efficacy model for allergic airway obstruction; type: functional
Cavia porcellus [3] = assay: In vivo activity was determined after oral administration for 2 hr in a guinea pig efficacy model for allergic airway obstruction; type: functional
Cavia porcellus [4] = assay: In vivo activity was determined after 1 mg/kg oral administration for 2 hrs in a guinea pig efficacy model for allergic airway obstruction; type: functional
Cavia porcellus [5] = assay: In vivo activity was determined after 1 mg/kg oral administration for 1 hr in a guinea pig efficacy model for allergic airway obstruction; type: functional
Cavia porcellus [6] = assay: In vivo activity was determined after oral administration for 2 hrs in a guinea pig efficacy model for allergic airway obstruction; type: functional

IC50 (U-937) [nM]	IC50 [1] [nM]	SMILES	ED50 (Cavia porcellus [2]) [mg/kg]	ED50 (Cavia porcellus [3]) [mg/kg]	inhibition in vivo at 1 mg/kg (Cavia porcellus [4]) [%]	inhibition in vivo at 1 mg/kg (Cavia porcellus [5]) [%]	Inhibition (Cavia porcellus [2]) [%]	ED50 (Cavia porcellus [6]) [mg/kg]
0.8	0.5	CCN(CC)C(=O)n1cc(Cc2ccc(C(=O)NS(=O)(=O)c3ccccc3C)cc2OC)c2cc(NC(=O)OC3CCCC3)ccc21	1.2					
0.3	0.5	COc1cc(C(=O)NS(=O)(=O)c2ccccc2C)ccc1Cc1cn(C(N)=O)c2ccc(NC(=O)OC3CCCC3)cc12	1.6					
0.4	2	COc1cc(C(=O)NS(=O)(=O)c2ccccc2C)ccc1Cc1cn(C(=O)N(c2ccccc2)c2ccccc2)c2ccc(NC(=O)OC3CCCC3)cc12		1.1				
0.4	1	COc1cc(C(=O)NS(=O)(=O)c2ccccc2C)ccc1Cc1cn(C(F)F)c2ccc(NC(=O)OC3CCCC3)cc12			58			
0.6	1	COc1cc(C(=O)NS(=O)(=O)c2ccccc2C)ccc1Cc1cn(C=O)c2ccc(NC(=O)OC3CCCC3)cc12	0.84					
1	0.4	COc1cc(C(=O)NS(=O)(=O)c2ccccc2C)ccc1Cc1cn(C(=O)N(C)C)c2ccc(NC(=O)OC3CCCC3)cc12				39		
0.1	0.5	COc1cc(C(=O)NS(=O)(=O)c2ccccc2C)ccc1Cc1cn(C(=O)NCCN(C)C)c2ccc(NC(=O)OC3CCCC3)cc12					34	
0.1	0.5	COc1cc(C(=O)NS(=O)(=O)c2ccccc2C)ccc1Cc1cn(C(=O)NCCCc2ccccc2)c2ccc(NC(=O)OC3CCCC3)cc12	1.6					
0.2	0.4	COc1cc(C(=O)NS(=O)(=O)c2ccccc2C)ccc1Cc1cn(C(=O)N(C)c2ccccc2)c2ccc(NC(=O)OC3CCCC3)cc12		1.1				
2	0.4	COc1cc(C(=O)NS(=O)(=O)c2ccccc2C)ccc1Cc1cn(C(=O)N2CCOCC2)c2ccc(NC(=O)OC3CCCC3)cc12					8	
2	1	COc1cc(C(=O)NS(=O)(=O)c2ccccc2C)ccc1Cc1c[nH]c2ccc(NC(=O)OC3CCCC3)cc12 [N-DEALKYLATED DERIVATIVE]				40		
1		COc1cc(C(=O)NS(=O)(=O)c2ccccc2C)ccc1Cc1cn(C)c2ccc(NC(=O)OC3CCCC3)cc12 [ZAFIRLUKAST]						0.9
